Results published in the NIST ThermoML archive (doi:10.1021/je050020m).

Test: xn = mol fraction of the nth substance listed
Conditions: Liquid, Vibrating tube method

CCCCCCCCCC [decane] + O=C=O
Conditions	mass density [kg/m3]
313.1 K, 2005 kPa, x2 = 0.0551	717.94
313.1 K, 3035 kPa, x2 = 0.0551	718.98
313.1 K, 4061 kPa, x2 = 0.0551	719.88
313.1 K, 5020 kPa, x2 = 0.2369	728.09
313.1 K, 5063 kPa, x2 = 0.0551	720.72
313.1 K, 6029 kPa, x2 = 0.0551	721.55
313.1 K, 6029 kPa, x2 = 0.2369	729.09
313.1 K, 7015 kPa, x2 = 0.2369	730.07
313.1 K, 7028 kPa, x2 = 0.0551	722.42
313.1 K, 7998 kPa, x2 = 0.0551	723.25
313.1 K, 8019 kPa, x2 = 0.2369	731.05
313.1 K, 9012 kPa, x2 = 0.2369	732.01
313.1 K, 9019 kPa, x2 = 0.0551	724.09
313.1 K, 10010 kPa, x2 = 0.0551	724.92
313.1 K, 10012 kPa, x2 = 0.2369	732.96
313.1 K, 11018 kPa, x2 = 0.2369	733.88
313.1 K, 11032 kPa, x2 = 0.0551	725.72
313.1 K, 12009 kPa, x2 = 0.2369	734.8
313.1 K, 12046 kPa, x2 = 0.0551	726.55
313.1 K, 13016 kPa, x2 = 0.2369	735.72
313.1 K, 13029 kPa, x2 = 0.0551	727.32
313.1 K, 14011 kPa, x2 = 0.0551	728.1
313.1 K, 14019 kPa, x2 = 0.2369	736.6
313.1 K, 15006 kPa, x2 = 0.2369	737.46
313.1 K, 15013 kPa, x2 = 0.0551	728.84
313.1 K, 15992 kPa, x2 = 0.0551	729.58
313.1 K, 16017 kPa, x2 = 0.2369	738.34
313.1 K, 16999 kPa, x2 = 0.0551	730.32
313.1 K, 17006 kPa, x2 = 0.2369	739.17
313.1 K, 18008 kPa, x2 = 0.2369	740.01
313.1 K, 18044 kPa, x2 = 0.0551	731.13
313.1 K, 19016 kPa, x2 = 0.2369	740.85
313.1 K, 19030 kPa, x2 = 0.0551	731.85
313.1 K, 19999 kPa, x2 = 0.0551	732.57
313.1 K, 20000 kPa, x2 = 0.2369	741.67
313.1 K, 21019 kPa, x2 = 0.2369	742.51
313.1 K, 21031 kPa, x2 = 0.0551	733.3
313.1 K, 22002 kPa, x2 = 0.2369	743.29
313.1 K, 22015 kPa, x2 = 0.0551	734
313.1 K, 23007 kPa, x2 = 0.2369	744.12
313.1 K, 23023 kPa, x2 = 0.0551	734.74
313.1 K, 24008 kPa, x2 = 0.2369	744.96
313.1 K, 24060 kPa, x2 = 0.0551	735.5
313.1 K, 25013 kPa, x2 = 0.2369	745.78
313.1 K, 25026 kPa, x2 = 0.0551	736.2
313.11 K, 7015 kPa, x2 = 0.4536	742.3
313.11 K, 8024 kPa, x2 = 0.4536	743.57
313.11 K, 9021 kPa, x2 = 0.4536	744.82
313.11 K, 10024 kPa, x2 = 0.4536	746.02
313.11 K, 11020 kPa, x2 = 0.4536	747.22
313.11 K, 11029 kPa, x2 = 0.9663	714.21
313.11 K, 12022 kPa, x2 = 0.4536	748.39
313.11 K, 12037 kPa, x2 = 0.9663	738.68
313.11 K, 13012 kPa, x2 = 0.4536	749.55
313.11 K, 13049 kPa, x2 = 0.9663	758.54
313.11 K, 14017 kPa, x2 = 0.4536	750.69
313.11 K, 14020 kPa, x2 = 0.9663	774.43
313.11 K, 15013 kPa, x2 = 0.9663	788.48
313.11 K, 15020 kPa, x2 = 0.4536	751.81
313.11 K, 16007 kPa, x2 = 0.9663	800.98
313.11 K, 16020 kPa, x2 = 0.4536	752.93
313.11 K, 17013 kPa, x2 = 0.4536	753.99
313.11 K, 17027 kPa, x2 = 0.9663	812.43
313.11 K, 17984 kPa, x2 = 0.9663	822.21
313.11 K, 18019 kPa, x2 = 0.4536	755.06
313.11 K, 19014 kPa, x2 = 0.4536	756.08
313.11 K, 19037 kPa, x2 = 0.9663	832.11
